Measured values as given in patent US12509460B2 (Skyhawk Therapeutics, Inc., priority 2019, dated 2025).
Like-named read-outs stand apart in the source and are kept apart here.

How the values were obtained:
[1] = Quantitative splicing assay (HTT), qPCR; type: cell-based, human; settings: Homo sapiens; GM04724 lymphoblasts, 24 h, qPCR; read-out: HTT Splicing: E49-50 EC50
Summary of the method: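 TaqMan qPCR on cell-lysate cDNA quantifies cryptic-exon inclusion from HTT intron 49. Lymphoblasts plated at 50,000 cells/well had received compound for 24 h, 0.15 nM-2.5 uM range, 0.1% DMSO.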

[2] = test system: mHTT protein in GM04724 (CAG 70/20) Huntington's disease patient lymphoblast cells; assay: mHTT protein assay, 2B7-MW1 assay via Mesoscale Discovery (MSD); type: cell-based, human
Summary of the method: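 Signal from the 2B7-MW1 antibody pair on MSD, rising with polyQ length and smaller HTT fragments, measured mHTT after 48 h compound exposure (0.6 nM–10 μM) in GM04724 cells. A parallel replicate plate gave CellTiter Glo viability.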

[3] = test system: SMN protein in spinal muscular atrophy (SMA) patient fibroblasts (GM03813, Coriell); assay: SMN protein assay, Mesoscale Discovery (MSD); type: cell-based, human; settings: for EC50: read-out: SMN2 protein EC50
Summary of the method: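 Absolute SMN levels were quantified by MSD against an SMN protein standard curve (1 μg/ml to 19.5 pg/ml) run on each plate. Samples were lysates of GM03813 patient fibroblasts (7000 cells/well) treated 48 hours with compound doses from 2.5 μM down to 0.6 nM.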

[4] = test system: MDR1-MDCK cell monolayers; settings: dog, MDCK-MDR1, 120 min, 5 μM, pH 7.4
[5] = test system: MDR1 (P-gp); assay: in vitro; settings: dog, MDCK-MDR1, pH 7.4
[6] = test system: MDR1; assay: in vitro; settings: dog, MDCK-MDR1, pH 7.4
[7] = test system: SMN FL and SMN Δ7 in spinal muscular atrophy (SMA) patient fibroblasts (GM03813, Coriell); assay: Quantitative splicing assay (SMN), qPCR; type: cell-based, human; settings: Homo sapiens, Fibroblast; SMA patient fibroblasts GM03813, 24 h, qPCR; read-out: SMN2 Splicing FL EC50
Description: Spinal muscular atrophy (SMA) patient fibroblasts (GM03813, Coriell) are plated in 96-well plates at 50,000 cells/well. […] Treated cells are lysed and cDNA synthesized using the Fast Advanced Cells-to-Ct kit (Thermofisher A35378) according to the manufacturer's instructions. 2 μL of each cDNA are used in qPCR reactions. […] Reactions are run in a Quant Studio 6 qPCR instrument with default settings.

[8] = GM04724 Huntington's disease patient lymphoblasts
[9] = SMA patient fibroblasts GM03813, 48 hours, MSD
[10] = GM04724 (CAG 70/20) Huntington's disease patient lymphoblasts
[11] = SMA patient fibroblasts (GM03813), 48 hours

| Structure (SMILES) | EC50 [1] | EC50 [2, 8] | SMN2 protein EC50 [3, 9] | MDCK-MDR1: % Recov A-B [4] | MDCK-MDR1: % Recov B-A [4] | Papp A→B at 120 min, 5 μM [5] | Papp B→A at 120 min, 5 μM [5] | efflux ratio at 120 min, 5 μM [6] | mHTT protein EC50 [2, 10] | EC50 [3, 11] | mHTT protein EC50 [2, 8] | EC50 [7] | EC50 [3, 9] | EC50 [2, 10] |
| --- | --- | --- | --- | --- | --- | --- | --- | --- | --- | --- | --- | --- | --- | --- |
| CN(c1ccc(-c2cc(C#N)ccc2O)nn1)[C@H]1C[C@@H]2CC[C@@H](N2)[C@H]1F (single isomer, unassigned) [Compound 70B] | 10 to 501 nM | 101 to 500 nM | E (501 ≤ E ≤ 10.000) | 95% | 100% | 3.84 ×10⁻⁶ cm/s | 58.1 ×10⁻⁶ cm/s | 15 |  |  |  |  |  |  |
| CN(c1ccc(-c2cc3c(=O)n(C)cnc3cc2O)nn1)[C@@H]1C[C@H]2CC[C@@H]([C@@H]1F)N2C [Compound 102A, 6-(6-(((1S,2S,3R,5R)-2-fluoro-8-methyl-8-azabicyclo[3.2.1]octan-3-yl)(methyl)amino)pyridazin-3-yl)-7-hydroxy-3-methylquinazolin-4(3H)-one] |  |  |  | 88% | 92% | 1.43 ×10⁻⁶ cm/s | 58.1 ×10⁻⁶ cm/s | 41 | E (501 ≤ E ≤ 10.000) | 101 to 500 nM |  |  |  |  |
| CC(=O)Nc1ccc(-c2ccc(N(C)[C@H]3C[C@@H]4CC[C@@H](N4)[C@H]3F)nn2)c(O)c1 (single isomer, unassigned) [Compound 32B] |  |  | E (501 ≤ E ≤ 10.000) | 95% | 95% | 0.27 ×10⁻⁶ cm/s | 21.2 ×10⁻⁶ cm/s | 78 |  |  | E (501 ≤ E ≤ 10.000) |  |  |  |
| CNC(=O)c1cc(O)c(-c2ccc(N(C)[C@@H]3C[C@H]4CC[C@H](N4)[C@@H]3F)nn2)cc1F [Compound 47A, 2-fluoro-4-(6-(((1S,2S,3R,5R)-2-fluoro-8-azabicyclo[3.2.1]octan-3-yl)(methyl)amino)pyridazin-3-yl)-5-hydroxy-N-methylbenzamide] |  | 101 to 500 nM |  | 98% | 108% | 1.45 ×10⁻⁶ cm/s | 49.3 ×10⁻⁶ cm/s | 34 |  |  |  | 501 to 10000 nM | 101 to 500 nM |  |
| CN(c1ccc(-c2cn3c(=O)ccnc3cc2O)nn1)[C@H]1C[C@@H]2CC[C@@H](N2)[C@H]1F (single isomer, unassigned) [Compound 82B] |  |  |  | 72% | 110% | < 0.21 ×10⁻⁶ cm/s | 3.28 ×10⁻⁶ cm/s | > 15 |  |  | E (501 ≤ E ≤ 10.000) |  | 101 to 500 nM |  |
| CCc1cn(-c2ccc(-c3ccc(N(C)[C@H]4C[C@@H]5CC(F)(F)[C@H](C4)N5)nn3)c(O)c2)nn1 (single isomer, unassigned) [Compound 64B] |  | 101 to 500 nM | E (501 ≤ E ≤ 10.000) | 69% | 83% | 5.61 ×10⁻⁶ cm/s | 58.6 ×10⁻⁶ cm/s | 10 |  |  |  |  |  |  |
| O=c1c2cc(O)c(-c3ccc(N(C4CC4)[C@H]4C[C@@H]5CC[C@@H](N5)[C@H]4F)nn3)cc2ncn1CC(F)(F)F (single isomer, unassigned) [Compound 60B] |  | 101 to 500 nM |  | 88% | 92% | 0.68 ×10⁻⁶ cm/s | 53 ×10⁻⁶ cm/s | 77 |  |  |  |  | 101 to 500 nM |  |
| CC(=O)Nc1ccc(-c2ccc(N(C)[C@@H]3C[C@H]4CC[C@H](N4)[C@@H]3F)nn2)c(O)c1 (single isomer, unassigned) [Compound 32A] |  |  | E (501 ≤ E ≤ 10.000) | 90% | 98% | 0.34 ×10⁻⁶ cm/s | 20.2 ×10⁻⁶ cm/s | 59 |  |  | E (501 ≤ E ≤ 10.000) |  |  |  |
| CN(c1ccc(-c2cc3ncn(CC(F)(F)F)c(=O)c3cc2O)nn1)[C@H]1C[C@@H]2CC(F)(F)[C@H](C1)N2 [Compound 59B, 7-(6-(((1R,3S,5S)-6,6-difluoro-8-azabicyclo[3.2.1]octan-3-yl)(methyl)amino)pyridazin-3-yl)-6-hydroxy-3-(2,2,2-trifluoroethyl)quinazolin-4(3H)-one] |  |  | E (501 ≤ E ≤ 10.000) | 107% | 101% | 2.97 ×10⁻⁶ cm/s | 84.2 ×10⁻⁶ cm/s | 28 |  |  | E (501 ≤ E ≤ 10.000) |  |  |  |
| CN(c1ccc(-c2cc(C#N)c(F)cc2O)nn1)[C@@H]1C[C@H]2CC[C@H](N2)[C@@H]1F [Compound 72A, 2-fluoro-5-(6-(((1S,2S,3R,5R)-2-fluoro-8-azabicyclo[3.2.1]octan-3-yl)(methyl)amino)pyridazin-3-yl)-4-hydroxybenzonitrile] |  |  | E (501 ≤ E ≤ 10.000) | 88% | 77% | 11.6 ×10⁻⁶ cm/s | 39.9 ×10⁻⁶ cm/s | 3 |  |  | E (501 ≤ E ≤ 10.000) |  |  |  |
| CN(c1ccc(-c2ccc(Oc3cnn(C)c3)cc2O)nn1)[C@@H]1C[C@H]2CC[C@H](N2)[C@@H]1F (single isomer, unassigned) [Compound 91A] |  |  |  | 84% | 82% | 4.19 ×10⁻⁶ cm/s | 62.8 ×10⁻⁶ cm/s | 15 |  |  | E (501 ≤ E ≤ 10.000) |  | 101 to 500 nM |  |
| Cc1nc2cc(-c3ccc(N(C)[C@@H]4C[C@H]5CC[C@@H]([C@@H]4F)N5C)nn3)c(O)cc2c(=O)n1C [Compound 105A, 7-(6-(((1S,2S,3R,5R)-2-fluoro-8-methyl-8-azabicyclo[3.2.1]octan-3-yl)(methyl)amino)pyridazin-3-yl)-6-hydroxy-2,3-dimethylquinazolin-4(3H)-one] |  |  |  | 105% | 115% | 0.58 ×10⁻⁶ cm/s | 56.9 ×10⁻⁶ cm/s | 99 |  | 101 to 500 nM |  |  |  | 101 to 500 nM |
| CN(c1ccc(-c2ccc(-n3cnc(C(=O)NC(C)(C)C)c3)cc2O)nn1)[C@@H]1C[C@H]2CC[C@H](N2)[C@@H]1F (single isomer, unassigned) [Compound 124A] |  |  |  | 78% | 78% | 0.34 ×10⁻⁶ cm/s | 45.7 ×10⁻⁶ cm/s | 133 | E (501 ≤ E ≤ 10.000) | 101 to 500 nM |  |  |  |  |
| O=C(c1cc2cc(O)c(-c3ccc(N(C4CC4)[C@@H]4C[C@H]5CC[C@H](N5)[C@@H]4F)nn3)cc2o1)N1CCC1 [Compound 57A, azetidin-1-yl(6-(6-(cyclopropyl((1S,2S,3R,5R)-2-fluoro-8-azabicyclo[3.2.1]octan-3-yl)amino)pyridazin-3-yl)-5-hydroxybenzofuran-2-yl)methanone] |  |  | E (501 ≤ E ≤ 10.000) | 89% | 104% | 0.78 ×10⁻⁶ cm/s | 63.2 ×10⁻⁶ cm/s | 80 |  |  | E (501 ≤ E ≤ 10.000) |  |  |  |
